The text below walks through data of paper PMC4999848 (Toxins, 2016).

Values joined by “and” are separate entries in the source; they are usually repeats but may differ in a detail not shown here. Identical values can stand only once.

The test system of data set [1] is pepsin and pancreatic enzymes (pancreatin, trypsin, lipase). The data set is described as follows: Deacetylation of 3/15ADON by luminal digestive enzymes (taken together). The data set is classed as in vitro ADME, porcine. The settings on record: percentage of sum of specific activities (Figure 8). How it is done: (§1) Stock solutions of DON, 3ADON and 15ADON at 2 mg/mL were prepared in absolute ethanol and stored at −20 °C. For deacetylation assay, 3- or 15ADON were incubated with cells, explants, bacteria or digestive enzymes after being diluted in PBS^++ at a final concentration of 100 μM. PBS^++ solution containing only ethanol (at 1.5% final concentration) or DON (at 100 μM) were used in parallel as negative and positive control, respectively. For cells and explants, deacetylation assay take place in 6-well plates, wells being filled with 2 mL of PBS^++ containing either ethanol, DON, 3- or 15ADON. For fecal bacteria and digestive enzyme assay, deacetylation assay was conducted in 2 mL Eppendorf tubes filled with 1.5 mL of PBS^++ containing either ethanol, DON, 3- or 15ADON. In vitro intestinal digestion by luminal enzymes was performed using porcine enzymes from Sigma-Aldrich and physiological conditions. […] In all cases, aliquots of the reaction solution were collected immediately (i.e., “time zero” sample) or after the indicated time period at 37 °C and analyzed by HPLC. […]
(§2) Deacetylation was monitoring both in term of disappearance of 3- or 15ADON and formation of DON. […] Quantification was based on calibration with the corresponding standard using Millinium Software (Waters, Saint Quentin Falavier, France).

Data set [2] in a line: Deacetylation of 3/15ADON by small intestine S9 fraction. The data set is classed as in vitro ADME, human. As to the method: (§3) Stock solutions of DON, 3ADON and 15ADON at 2 mg/mL were prepared in absolute ethanol and stored at −20 °C. For deacetylation assay, 3- or 15ADON were incubated with cells, explants, bacteria or digestive enzymes after being diluted in PBS^++ at a final concentration of 100 μM. PBS^++ solution containing only ethanol (at 1.5% final concentration) or DON (at 100 μM) were used in parallel as negative and positive control, respectively. For cells and explants, deacetylation assay take place in 6-well plates, wells being filled with 2 mL of PBS^++ containing either ethanol, DON, 3- or 15ADON. For fecal bacteria and digestive enzyme assay, deacetylation assay was conducted in 2 mL Eppendorf tubes filled with 1.5 mL of PBS^++ containing either ethanol, DON, 3- or 15ADON. In vitro intestinal digestion by luminal enzymes was performed using porcine enzymes from Sigma-Aldrich and physiological conditions. Briefly, 3- or 15ADON were incubated with pepsin (at 1.6 mg/mL corresponding to 900 U/mL), trypsin (at 0.35 mg/mL corresponding to 6000 U/mL), pancreatic lipase (at 0.75 mg/mL corresponding to 18 U/mL) or pancreatin (at 1.23 mg/mL, lipase activity >10 U/mL, protease activity >100 U/mL, amylase activity >100 U/mL). Except for pepsin for which the digestion was conducted in HCl solution at 10 mM (pH 2.3), in vitro digestion was performed in PBS^++ (pH 7.4). Finally, deacetylation assay was also performed with commercial pooled S9 fractions from human liver, small intestine and kidneys as well as with pure recombinant human CES1 and CES2. S9 fractions and CES1/2 were used at 0.1 mg/mL and 5 μg/mL (corresponding to CES activity >20 U/mL), respectively. In all cases, aliquots of the reaction solution were collected immediately (i.e., “time zero” sample) or after the indicated time period at 37 °C and analyzed by HPLC. […] In all cases, the experiments were conducted in triplicate (n = 3).
Deacetylation was monitoring both in term of disappearance of 3- or 15ADON and formation of DON. Measurement of DON, 3ADON and 15ADON concentrations was performed by reversed-phase HPLC using Waters Alliance System equipped with a Waters 2690 XE separation module and a Waters 996 photodiode array detector (Waters, Saint Quentin Falavier, France). The separation was achieved by mean of a LiChroCart column (125 mm × 4 mm) packed with 5 μm RP-18 Purospher gel (Merck, Darmstadt, Germany) and equipped with a LiChroCart precolumn (4 mm × 4 mm) packed with the same material (Merck). The precolumn and column were placed in room temperature. The elution procedure was carried out at 0.7 mL·min^−1 by a methanol–water solvent, using the following conditions: 40% methanol during 2 min followed by an increase in methanol to 50% at 2.1 min. The detection wavelength was set at 237 nm allowing the best signal/baseline ratio for simultaneous detection of the three DON forms in the incubation mediums. Under these conditions, DON and 3/15ADON were clearly separated, the retention time being around 2.7 min and 5.7 min, for DON and 3/15ADON, respectively (Figure 9). Quantification was based on calibration with the corresponding standard using Millinium Software (Waters, Saint Quentin Falavier, France).

Data set [3] concerns secreted digestive enzymes and fecal bacteria. The data set is described as follows: Deacetylation of 3/15ADON by secreted digestive enzymes and fecal bacteria (taken together). Format: in vitro ADME. The following applies: digestive enzymes plus fecal bacteria. As to the method: The whole procedure involving fecal bacteria (including the use of fecal bacteria for the deacetylation assay) was performed in an anaerobic cabinet (Coy Laboratory Products, Grass Lake, MI, USA). Human fecal bacteria were isolated from three volunteers (men) working in the department, 40–50 years of age. Stools were collected fresh in a sterile container and were immediately introduced into the anaerobic cabinet. Feces samples were taken by pushing a cut-off disposal 1 mL pipette tip into the inner part of the stools. Samples were then mechanically suspended in 9 mL of degassed PBS^++. Homogenates were allowed to decant for ten minutes to eliminate insoluble matter, and supernatants (1 mL aliquots) were transferred to sterile Eppendorf tubes and used for deacetylation assay.
Stock solutions of DON, 3ADON and 15ADON at 2 mg/mL were prepared in absolute ethanol and stored at −20 °C. For deacetylation assay, 3- or 15ADON were incubated with cells, explants, bacteria or digestive enzymes after being diluted in PBS^++ at a final concentration of 100 μM. PBS^++ solution containing only ethanol (at 1.5% final concentration) or DON (at 100 μM) were used in parallel as negative and positive control, respectively. […] In all cases, aliquots of the reaction solution were collected immediately (i.e., “time zero” sample) or after the indicated time period at 37 °C and analyzed by HPLC. […]

In a further data set the test system is liver explant. The data set is described as follows: Deacetylation of 3/15ADON by human liver explants. Format: in vitro ADME. The settings on record: for % of deacetylation: hepatic explants, 6 h incubation, 100 μM; for Disappearance of 3/15ADON, specific activity: liver explant, 37 °C, substrate 100 μM; for Contribution to total deacetylation activity: Liver: percentage of sum of specific activities (Figure 8).
Description: Human tissue samples were obtained from patients undergoing surgery at the Hospital Nord of Marseille, unit of general and gastrointestinal surgery according to a collaborative “clinical transfer” project. The procedures were approved by the French ethic committee (CODECOH n° DC-2011-1319). Patients were from both genders (six men, three women), 31–74 years of age, all of European origin. All patients agree to use their tissues for research purposes. Samples were taken from macroscopically unaffected area as identified by the surgeon for intestinal samples or the pathologist for liver resections. Diagnoses leading to surgery were carcinoma for intestine or liver. After resection, the specimens were placed in ice-cold non-sterile Krebs solution implemented and transferred to the school of medicine on the same campus within 5 min, composition of the Krebs solution being previously described. The tissues were rinsed several times and maintained in oxygenated Krebs during 1 h for recovery before final dissection. Intestinal and hepatic resections were extensively washed and maintained in ice-cold culture media containing 1% streptomycin/penicillin solution and 50 μg/mL gentamycin. Tissues were cleaned from vascular vessels and conjunctive tissue using forceps under binocular microscope. In case of intestinal resection, muscularis and plexus were removed and only epithelial layer was kept. Intestinal and hepatic explants (wet weight of 20–30 mg) were then isolated from the cleaned resections using surgical punch (diameter of […]). […] Finally, the explants were washed 3 times with PBS^++ and transferred into 6-well plates before being used for deacetylation assay.
as §3

In the next data set the target is T1, pancreatic lipase (Sus scrofa, UniProt P00591).
T1 construct: purchased Sigma-Aldrich
The data set is described as follows: Deacetylation of 3/15ADON by pancreatic lipase. Format: in vitro ADME, porcine. The following applies: lipase 0.75 mg/mL, PBS pH 7.4, 37 °C, substrate 100 μM. How it is done: as §1, §2

[4] abbreviates: S9 Intestine + Benzil 100 μM (Table 1).
Where [5] appears, read: S9 small intestine 0.1 mg/mL, 37 °C, substrate 100 μM (Table 3).

T1 sequence (P00591 whole entry): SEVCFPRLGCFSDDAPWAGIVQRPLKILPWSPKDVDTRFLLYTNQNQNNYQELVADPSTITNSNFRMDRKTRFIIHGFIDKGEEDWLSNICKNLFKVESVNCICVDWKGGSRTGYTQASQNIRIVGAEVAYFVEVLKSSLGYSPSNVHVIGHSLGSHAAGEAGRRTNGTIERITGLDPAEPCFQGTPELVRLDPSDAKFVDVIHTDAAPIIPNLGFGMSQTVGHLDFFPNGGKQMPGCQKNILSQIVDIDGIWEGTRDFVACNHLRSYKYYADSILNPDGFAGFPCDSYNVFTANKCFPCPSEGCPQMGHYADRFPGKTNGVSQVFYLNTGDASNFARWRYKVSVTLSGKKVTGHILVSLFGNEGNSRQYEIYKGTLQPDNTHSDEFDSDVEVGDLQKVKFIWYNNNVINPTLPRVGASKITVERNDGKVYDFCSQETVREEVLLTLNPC

On to `CC(=O)OC[C@]12[C@H](O)C(=O)C(C)=C[C@H]1O[C@@H]1[C@H](O)C[C@@]2(C)[C@]12CO2` [15ADON, 15-acetyldeoxynivalenol], for which, in data set [1], the “Contribution to total deacetylation activity: Pancreatic enzymes” value was 26%. Besides, the “Disappearance of 3/15ADON, specific activity” value in data set [2] (setting [4]) is 171 ± 79 pmol/min/mg; in data set [2] (setting [5]) it was 166 pmol/min/mg and 166 ± 20 pmol/min/mg; in the data set on liver explant, 330 pmol/min/mg and 330 ± 34 pmol/min/mg; on pancreatic lipase, 42 ± 18 pmol/min/mg. The “Contribution to total deacetylation: intestinal luminal events” value in data set [3] is on record as 34%. Moreover, the “% of deacetylation” value with liver explant is listed as 24.6% ± 2.8%. Moreover, the “Contribution to total deacetylation activity: Liver” value in the data set with liver explant is given as 52%.

Regarding `CC(=O)O[C@@H]1C[C@]2(C)[C@@]3(CO)[C@H](O)C(=O)C(C)=C[C@H]3O[C@H]1[C@@]21CO1` [3ADON, 3-acetyldeoxynivalenol], in data set [1], the “Contribution to total deacetylation activity: Pancreatic enzymes” value is 10%. The “Disappearance of 3/15ADON, specific activity” value in data set [2] (setting [4]) is 875 ± 83 pmol/min/mg; in data set [2] (S9 Intestine, without benzil (Table 1)), 1166 ± 110 pmol/min/mg; in data set [2] (setting [5]), 1250 pmol/min/mg and 1250 ± 79 pmol/min/mg; in the data set on liver explant it was 714 pmol/min/mg and 714 ± 198 pmol/min/mg; at pancreatic lipase it was 48 ± 21 pmol/min/mg. Besides, the “Contribution to total deacetylation: intestinal luminal events” value in data set [3] came to 16%. For the same compound, the “% of deacetylation” value with liver explant was 54.6% ± 15.4%. The “Contribution to total deacetylation activity: Liver” value with liver explant was found to be 56%.
